ChEMBL document CHEMBL4507273 (2021)

Tests used:
[1] = biological target: Serine/threonine-protein kinase STK11 (Homo sapiens) (UniProt Q15831); details: Compound concentration 1000.0 nM
[2] = tested on: Mast/stem cell growth factor receptor Kit (Homo sapiens), P10721 [V559D,T670I]; details: Compound concentration 1000.0 nM
[3] = biological target: Serine/threonine-protein kinase Chk2 (Homo sapiens) (UniProt O96017); details: Compound concentration 1000.0 nM
[4] = biological target: Phosphatidylinositol 4-phosphate 5-kinase type-1 alpha (Homo sapiens) (UniProt Q99755); details: Compound concentration 1000.0 nM
[5] = biological target: Cyclin-dependent kinase 4 (Homo sapiens) (UniProt P11802); details: Compound concentration 1000.0 nM
Cyclin-dependent kinase 4 (Homo sapiens), sequence (P11802 whole entry): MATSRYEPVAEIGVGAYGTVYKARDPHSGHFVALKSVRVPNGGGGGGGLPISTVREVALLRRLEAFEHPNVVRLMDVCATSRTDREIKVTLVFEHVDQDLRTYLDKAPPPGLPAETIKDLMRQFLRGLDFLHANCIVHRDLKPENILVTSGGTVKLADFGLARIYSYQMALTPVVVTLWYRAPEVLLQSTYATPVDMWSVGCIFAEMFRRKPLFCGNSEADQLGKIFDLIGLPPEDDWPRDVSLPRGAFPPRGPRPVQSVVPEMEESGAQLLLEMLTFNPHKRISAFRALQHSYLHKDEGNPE

[6] = biological target: Serine/threonine-protein kinase PAK 6 (Homo sapiens) (UniProt Q9NQU5); details: Compound concentration 1000.0 nM
[7] = biological target: Cyclin-dependent kinase 4 (Homo sapiens) (UniProt P11802); details: Compound concentration 1000.0 nM; remark: listed apart in the source
[8] = biological target: Mitogen-activated protein kinase kinase kinase kinase 1 (Homo sapiens) (UniProt Q92918); details: Compound concentration 1000.0 nM
[9] = biological target: 5-hydroxytryptamine receptor 2B (Homo sapiens, UniProt P41595); experiment: GPCRScan assay: inhibition of 5-HT2B; parameters: radioligand conc. used [nm] 1.0 – 2.0, parental cells stable HEK
[10] = biological target: Protein kinase C delta type (Homo sapiens) (UniProt Q05655); details: Compound concentration 1000.0 nM
D(1A) dopamine receptor = D(1A) dopamine receptor (Homo sapiens, UniProt P21728); experiment: GPCRScan assay: inhibition of D1; parameters: radioligand conc. used [nm] 0.6 – 1.3, parental cells HEKT
D(1A) dopamine receptor, sequence (P21728 whole entry): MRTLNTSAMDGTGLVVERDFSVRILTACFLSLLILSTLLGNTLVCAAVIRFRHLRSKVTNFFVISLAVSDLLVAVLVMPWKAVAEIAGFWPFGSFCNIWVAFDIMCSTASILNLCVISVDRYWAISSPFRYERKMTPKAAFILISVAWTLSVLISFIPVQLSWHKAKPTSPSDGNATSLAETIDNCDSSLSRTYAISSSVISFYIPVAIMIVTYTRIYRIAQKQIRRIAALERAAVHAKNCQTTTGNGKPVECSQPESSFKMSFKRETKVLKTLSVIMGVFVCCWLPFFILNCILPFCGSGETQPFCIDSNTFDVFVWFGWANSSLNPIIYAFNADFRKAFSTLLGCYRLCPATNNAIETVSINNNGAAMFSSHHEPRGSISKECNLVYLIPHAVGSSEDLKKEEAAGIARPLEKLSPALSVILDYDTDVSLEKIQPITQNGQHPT

[11] = biological target: Mitogen-activated protein kinase kinase kinase 20 (Homo sapiens) (UniProt Q9NYL2); details: Compound concentration 1000.0 nM
[12] = biological target: Ephrin type-A receptor 8 (Homo sapiens) (UniProt P29322); details: Compound concentration 1000.0 nM
Ephrin type-A receptor 8 (Homo sapiens), sequence (P29322 whole entry): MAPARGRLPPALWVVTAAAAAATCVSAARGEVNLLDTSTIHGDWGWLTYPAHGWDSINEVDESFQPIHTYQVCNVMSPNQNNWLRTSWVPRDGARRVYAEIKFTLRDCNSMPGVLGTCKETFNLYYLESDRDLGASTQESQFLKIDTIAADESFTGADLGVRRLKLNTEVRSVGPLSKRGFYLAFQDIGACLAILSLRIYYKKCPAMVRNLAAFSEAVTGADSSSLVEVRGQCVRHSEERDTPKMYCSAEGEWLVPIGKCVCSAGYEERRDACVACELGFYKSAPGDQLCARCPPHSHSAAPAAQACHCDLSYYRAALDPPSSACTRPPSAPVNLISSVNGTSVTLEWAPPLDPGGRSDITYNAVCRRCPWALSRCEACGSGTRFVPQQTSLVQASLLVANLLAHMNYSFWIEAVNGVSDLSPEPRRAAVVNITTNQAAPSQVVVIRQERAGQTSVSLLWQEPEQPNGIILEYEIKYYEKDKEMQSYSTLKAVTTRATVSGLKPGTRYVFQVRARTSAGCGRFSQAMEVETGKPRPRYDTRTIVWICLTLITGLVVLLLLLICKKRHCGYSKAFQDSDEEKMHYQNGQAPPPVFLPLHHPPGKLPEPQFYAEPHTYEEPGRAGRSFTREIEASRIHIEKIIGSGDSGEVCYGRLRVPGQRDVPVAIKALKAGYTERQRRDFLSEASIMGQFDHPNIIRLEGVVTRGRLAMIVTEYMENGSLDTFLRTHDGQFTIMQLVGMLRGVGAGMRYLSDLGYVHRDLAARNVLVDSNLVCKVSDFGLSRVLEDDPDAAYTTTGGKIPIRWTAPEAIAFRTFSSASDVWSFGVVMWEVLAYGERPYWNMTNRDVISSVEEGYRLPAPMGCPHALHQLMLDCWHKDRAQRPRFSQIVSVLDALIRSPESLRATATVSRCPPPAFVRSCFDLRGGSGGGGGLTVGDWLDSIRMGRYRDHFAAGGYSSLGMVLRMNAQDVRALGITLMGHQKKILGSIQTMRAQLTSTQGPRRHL

[13] = biological target: Mitogen-activated protein kinase kinase kinase 15 (Homo sapiens) (UniProt Q6ZN16); details: Compound concentration 1000.0 nM
Mitogen-activated protein kinase kinase kinase 15 (Homo sapiens), sequence (Q6ZN16 whole entry): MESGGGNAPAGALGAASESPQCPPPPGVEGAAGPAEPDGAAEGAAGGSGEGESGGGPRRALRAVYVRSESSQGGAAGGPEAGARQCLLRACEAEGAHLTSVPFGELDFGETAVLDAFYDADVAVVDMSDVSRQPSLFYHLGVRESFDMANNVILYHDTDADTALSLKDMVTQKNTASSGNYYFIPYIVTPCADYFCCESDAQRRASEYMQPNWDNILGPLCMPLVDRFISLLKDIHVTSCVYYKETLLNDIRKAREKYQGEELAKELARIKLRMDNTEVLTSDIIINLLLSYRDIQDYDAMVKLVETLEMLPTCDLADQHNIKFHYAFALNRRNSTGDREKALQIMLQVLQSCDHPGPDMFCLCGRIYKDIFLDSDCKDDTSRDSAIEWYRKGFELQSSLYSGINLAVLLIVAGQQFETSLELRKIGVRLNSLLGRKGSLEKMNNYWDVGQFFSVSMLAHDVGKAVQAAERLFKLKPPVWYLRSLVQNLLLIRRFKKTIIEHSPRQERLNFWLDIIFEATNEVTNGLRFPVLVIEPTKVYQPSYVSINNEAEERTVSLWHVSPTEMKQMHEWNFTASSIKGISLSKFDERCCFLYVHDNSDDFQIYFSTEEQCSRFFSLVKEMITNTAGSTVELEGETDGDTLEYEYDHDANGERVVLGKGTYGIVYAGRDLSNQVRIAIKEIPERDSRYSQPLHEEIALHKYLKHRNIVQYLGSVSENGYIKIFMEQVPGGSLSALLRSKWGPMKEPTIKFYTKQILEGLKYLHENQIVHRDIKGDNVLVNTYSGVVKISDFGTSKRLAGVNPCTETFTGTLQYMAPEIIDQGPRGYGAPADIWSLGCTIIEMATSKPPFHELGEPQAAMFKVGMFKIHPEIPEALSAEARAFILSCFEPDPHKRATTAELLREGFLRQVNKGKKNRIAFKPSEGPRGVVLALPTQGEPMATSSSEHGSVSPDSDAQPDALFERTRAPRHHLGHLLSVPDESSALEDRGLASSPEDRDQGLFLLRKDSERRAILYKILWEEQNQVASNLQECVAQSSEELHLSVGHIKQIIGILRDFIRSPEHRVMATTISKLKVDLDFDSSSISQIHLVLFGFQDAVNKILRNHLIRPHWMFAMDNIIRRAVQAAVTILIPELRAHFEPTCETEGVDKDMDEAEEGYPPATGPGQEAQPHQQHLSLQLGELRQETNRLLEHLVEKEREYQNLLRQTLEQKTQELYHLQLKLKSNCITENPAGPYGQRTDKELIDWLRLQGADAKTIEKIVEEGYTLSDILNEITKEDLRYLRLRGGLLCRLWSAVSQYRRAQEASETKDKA

[14] = biological target: Serine/threonine-protein kinase 32A (Homo sapiens) (UniProt Q8WU08); details: Compound concentration 1000.0 nM
[15] = biological target: Ribosomal protein S6 kinase alpha-5 (Homo sapiens) (UniProt O75582); details: Compound concentration 1000.0 nM
Histamine H4 receptor = Histamine H4 receptor (Homo sapiens, UniProt Q9H3N8); details: Compound concentration 10.0 uM
[16] = biological target: Sigma intracellular receptor 2 (Homo sapiens, UniProt Q5BJF2); experiment: GPCRScan assay: inhibition of Sigma 2; parameters: radioligand conc. used [nm] 5.0, parental cells HEKT
Sigma intracellular receptor 2, sequence (Q5BJF2 whole entry): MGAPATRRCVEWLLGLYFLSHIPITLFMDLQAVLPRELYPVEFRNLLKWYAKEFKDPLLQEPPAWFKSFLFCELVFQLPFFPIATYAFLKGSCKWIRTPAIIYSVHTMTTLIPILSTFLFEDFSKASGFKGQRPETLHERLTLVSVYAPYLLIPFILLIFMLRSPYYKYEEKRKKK

[17] = biological target: TGF-beta receptor type-2 (Homo sapiens) (UniProt P37173); details: Compound concentration 1000.0 nM
[18] = biological target: Dual specificity mitogen-activated protein kinase kinase 5 (Homo sapiens) (UniProt Q13163); details: Compound concentration 1000.0 nM
[19] = biological target: Hormonally up-regulated neu tumor-associated kinase (Homo sapiens) (UniProt P57058); details: Compound concentration 1000.0 nM
[20] = biological target: Serine/threonine-protein kinase TAO1 (Homo sapiens) (UniProt Q7L7X3); details: Compound concentration 1000.0 nM
[21] = biological target: Sodium-dependent dopamine transporter (Homo sapiens, UniProt Q01959); experiment: GPCRScan assay: inhibition of DAT; parameters: radioligand conc. used [nm] 3.6 – 16.0, parental cells stable HEK
Sodium-dependent dopamine transporter, sequence (Q01959 whole entry): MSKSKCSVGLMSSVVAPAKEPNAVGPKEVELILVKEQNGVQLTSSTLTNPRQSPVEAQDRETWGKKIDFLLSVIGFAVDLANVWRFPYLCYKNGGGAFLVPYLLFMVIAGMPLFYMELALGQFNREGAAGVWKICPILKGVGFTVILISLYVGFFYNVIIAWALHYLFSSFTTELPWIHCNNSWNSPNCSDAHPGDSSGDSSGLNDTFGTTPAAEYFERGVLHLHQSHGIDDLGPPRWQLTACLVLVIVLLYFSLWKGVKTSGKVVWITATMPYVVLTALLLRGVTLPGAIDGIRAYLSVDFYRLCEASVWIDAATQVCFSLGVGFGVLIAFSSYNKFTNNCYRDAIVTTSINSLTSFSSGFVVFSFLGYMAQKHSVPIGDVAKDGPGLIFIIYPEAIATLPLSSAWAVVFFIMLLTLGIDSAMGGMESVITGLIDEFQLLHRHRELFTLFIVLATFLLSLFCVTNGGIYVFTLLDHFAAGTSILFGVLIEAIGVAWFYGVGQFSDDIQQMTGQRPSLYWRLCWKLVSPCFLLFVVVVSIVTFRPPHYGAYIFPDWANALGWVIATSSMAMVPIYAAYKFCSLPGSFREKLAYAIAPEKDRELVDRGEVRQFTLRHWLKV

[22] = biological target: T1, Muscarinic acetylcholine receptor M5 (Homo sapiens, UniProt P08912); experiment: GPCRScan assay: inhibition of M5; parameters: radioligand conc. used [nm] 0.2 – 1.0, parental cells stable CHO
T1 sequence (P08912 whole entry): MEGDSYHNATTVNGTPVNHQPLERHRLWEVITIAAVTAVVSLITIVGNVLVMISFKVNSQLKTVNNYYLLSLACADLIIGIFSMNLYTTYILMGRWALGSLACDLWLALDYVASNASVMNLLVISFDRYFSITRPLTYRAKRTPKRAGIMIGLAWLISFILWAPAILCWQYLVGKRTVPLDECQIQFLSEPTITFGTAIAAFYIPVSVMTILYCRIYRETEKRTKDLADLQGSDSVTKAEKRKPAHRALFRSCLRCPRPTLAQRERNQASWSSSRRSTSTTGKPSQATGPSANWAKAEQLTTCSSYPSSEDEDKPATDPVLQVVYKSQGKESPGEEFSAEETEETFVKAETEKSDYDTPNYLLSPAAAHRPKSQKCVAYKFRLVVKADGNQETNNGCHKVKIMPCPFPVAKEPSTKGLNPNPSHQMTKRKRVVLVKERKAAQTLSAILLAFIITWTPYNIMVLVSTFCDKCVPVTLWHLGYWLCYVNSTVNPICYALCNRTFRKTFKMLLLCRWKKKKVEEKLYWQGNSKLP

[23] = biological target: Serine/threonine-protein kinase mTOR (Homo sapiens) (UniProt P42345); details: Compound concentration 1000.0 nM
[24] = biological target: 5-hydroxytryptamine receptor 5A (Homo sapiens, UniProt P47898); details: Compound concentration 10.0 uM
[25] = biological target: Beta-3 adrenergic receptor (Homo sapiens) (UniProt P13945); details: Compound concentration 10.0 uM
[26] = biological target: Dual specificity mitogen-activated protein kinase kinase 2 (Homo sapiens) (UniProt P36507); details: Compound concentration 1000.0 nM
[27] = biological target: Serine/threonine-protein kinase LATS2 (Homo sapiens) (UniProt Q9NRM7); details: Compound concentration 1000.0 nM
[28] = tested on: Mast/stem cell growth factor receptor Kit (Homo sapiens), P10721 [V559D]; details: Compound concentration 1000.0 nM
Mast/stem cell growth factor receptor Kit (Homo sapiens), P10721 [V559D], sequence (P10721 whole entry V559D): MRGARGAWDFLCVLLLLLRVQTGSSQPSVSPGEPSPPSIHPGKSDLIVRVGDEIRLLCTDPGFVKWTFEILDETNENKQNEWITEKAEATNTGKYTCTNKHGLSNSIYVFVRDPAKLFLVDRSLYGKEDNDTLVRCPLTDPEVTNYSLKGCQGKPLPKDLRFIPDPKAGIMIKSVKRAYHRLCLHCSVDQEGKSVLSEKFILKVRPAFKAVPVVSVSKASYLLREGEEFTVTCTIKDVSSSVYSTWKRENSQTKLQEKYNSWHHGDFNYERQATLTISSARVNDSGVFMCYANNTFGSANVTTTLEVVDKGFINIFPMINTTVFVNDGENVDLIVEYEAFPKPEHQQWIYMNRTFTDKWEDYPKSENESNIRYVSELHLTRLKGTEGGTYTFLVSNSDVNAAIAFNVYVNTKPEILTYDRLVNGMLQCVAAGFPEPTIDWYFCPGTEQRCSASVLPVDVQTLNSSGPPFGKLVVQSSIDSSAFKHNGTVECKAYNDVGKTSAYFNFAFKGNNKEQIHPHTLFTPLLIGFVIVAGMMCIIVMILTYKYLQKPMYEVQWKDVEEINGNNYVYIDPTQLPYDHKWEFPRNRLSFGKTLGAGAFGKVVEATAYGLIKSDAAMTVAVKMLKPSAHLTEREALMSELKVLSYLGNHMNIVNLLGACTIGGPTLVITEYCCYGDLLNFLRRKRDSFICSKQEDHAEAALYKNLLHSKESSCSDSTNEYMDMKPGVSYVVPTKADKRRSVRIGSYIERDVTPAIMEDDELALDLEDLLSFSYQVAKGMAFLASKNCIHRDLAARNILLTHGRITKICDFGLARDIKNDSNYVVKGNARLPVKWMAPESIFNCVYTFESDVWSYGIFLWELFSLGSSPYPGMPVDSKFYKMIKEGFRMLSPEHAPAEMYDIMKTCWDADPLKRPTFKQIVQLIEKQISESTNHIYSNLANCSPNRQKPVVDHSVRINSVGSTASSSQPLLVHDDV

[29] = biological target: Ribosomal protein S6 kinase alpha-6 (Homo sapiens) (UniProt Q9UK32); details: Compound concentration 1000.0 nM
[30] = biological target: GABA-A receptor; anion channel (Rattus norvegicus) (UniProt O09028+P15431+P18506+P18508+P19969+P20236+P23574+P23576+P28471+P28473+P30191+P62813+P63079+P63138+Q91ZM7+Q9ES14); details: Compound concentration 10.0 uM
[31] = biological target: Ribosomal protein S6 kinase alpha-4 (Homo sapiens) (UniProt O75676); details: Compound concentration 1000.0 nM
[32] = tested on: Mast/stem cell growth factor receptor Kit (Homo sapiens), P10721 [V559D,V654A]; details: Compound concentration 1000.0 nM
Mast/stem cell growth factor receptor Kit (Homo sapiens), P10721 [V559D,V654A], sequence (P10721 whole entry V559D/V654A): as the sequence (P10721 whole entry V559D) above, with V654A counted along it

[33] = biological target: Mitogen-activated protein kinase kinase kinase 6 (Homo sapiens) (UniProt O95382); details: Compound concentration 1000.0 nM
[34] = biological target: Cyclin-dependent kinase 11A (Homo sapiens) (UniProt Q9UQ88); details: Compound concentration 1000.0 nM

Mast/stem cell growth factor receptor Kit (Homo sapiens), P10721 [V559D,T670I], sequence (P10721 whole entry V559D/T670I): as the sequence (P10721 whole entry V559D) above, with T670I counted along it

SMILES	residual activity [1]	residual activity [2]	residual activity [3]	residual activity [4]	residual activity [5]	residual activity [6]	residual activity [7]	residual activity [8]	Ki [9]	residual activity [10]	Ki (D(1A) dopamine receptor; read-out: Ki)	residual activity [11]	residual activity [12]	residual activity [13]	residual activity [14]	residual activity [15]	inhibition (Histamine H4 receptor)	Ki ([16]; read-out: Ki)	residual activity [17]	residual activity [18]	other results
CNCc1ccccc1-c1csc([C@@H](C)Nc2nc(C)nc3cc(OC)c(OC)cc23)c1 [BAY-293]	96%	80%	76%	75%	88%	100%	100%	83%	623 nM	98%	1270 nM	75%	100%	60%	76%	100%	42.1%	180 nM	91%	91%	residual activity [19]: 100%; residual activity [20]: 95%; Ki ([21]; read-out: Ki): 522 nM; Ki ([21]; read-out: pKi (converted)): 479 nM; Ki ([22]; read-out: Ki): 956 nM; Ki ([22]; read-out: pKi (converted)): 944 nM; residual activity [23]: 100%; inhibition [24]: 68.5%; inhibition [25]: 20%; residual activity [26]: 82%; residual activity [27]: 98%; residual activity [28]: 100%; residual activity [29]: 85%; inhibition [30]: 0.89%; residual activity [31]: 100%; residual activity [32]: 89%; residual activity [33]: 99%; residual activity [34]: 91%
CNCc1ccccc1-c1csc([C@H](C)Nc2nc(C)nc3cc(OC)c(OC)cc23)c1 [BAY-294]	100%	100%	87%	92%	77%	100%	100%	100%	74.6 nM	100%	718 nM	100%	100%	77%	91%	100%	67%	638 nM	97%	87%	Ki (D(1A) dopamine receptor; read-out: pKi (converted)): 562 nM; Ki ([16]; read-out: pKi (converted)): 610 nM; residual activity [19]: 100%; residual activity [20]: 100%; Ki ([21]; read-out: Ki): 1670 nM; Ki ([21]; read-out: pKi (converted)): 1410 nM; Ki ([22]; read-out: Ki): 524 nM; residual activity [23]: 100%; inhibition [24]: 78.1%; inhibition [25]: 38.2%; residual activity [26]: 100%; residual activity [27]: 95%; residual activity [28]: 100%; residual activity [29]: 100%; inhibition [30]: -1.27%; residual activity [31]: 100%; residual activity [32]: 100%; residual activity [33]: 100%; residual activity [34]: 100%
